From patent publication US12691104B2, “Compositions containing nicotinamide and vitamin B6 and methods of using such compositions for treating sarcopenia and frailty” (SOCIETE DES PRODUITS NESTLE S.A., priority 2020, dated 2026)

Tested on: Human primary myoblasts
Test: Myogenic amplification and commitment of muscle stem cells (Pax7/MyoD staining, image quantification)
Type: cell-based
Conditions: donors 1 and 2 pooled, dose response, 96 hours, control DMSO 1%; for proportion of MyoD+ cells, fold change compared to the control condition: FIG. 1B/2B
Procedure: Human Skeletal Muscle Myoblasts were purchased from Lonza (https://bioscience.lonza.com). These cells were isolated from the upper arm or leg muscle tissue of normal donors and used after the second passage. Several donors were tested to ensure cell viability and purity before selecting the final donors, which are a person (refer thereafter as Donor 1), a person (refer thereafter as Donor 2) and a person (refer thereafter as Donor 3). Human primary myoblasts were seeded in 384 well plates at a density of 1′000 cells per well in skeletal muscle growth medium (SKM-M, AMSbio). For treatment, compounds were directly added to the myoblast cultures 16 hours after initial plating. All cultures were then grown for 96 hours. Cells were stained for Pax7 and MyoD expression using antibodies directed against Pax7 and MyoD and counterstained with Hoechst 33342 to visualize cell nuclei. Pax7+ cells are defined as cells that express Pax7 regardless of MyoD expression. […] Image acquisition was performed using the ImageXpress (Molecular Devices) platform. Custom module analysis based on Multi-Wavelength Cell Scoring of the MetaXpress software was used for quantification. *, **, ***, **** indicates difference from the control, One-way ANOVA, with p<0.05, p<0.01, p<0.001, p<0.0001, respectively. Data are presented as Mean+/— SEM. Human primary myoblasts from different donors (donor 1, donor 2 or donor 3) were seeded in 384 well plates at a density of 1′000 cells per well in skeletal muscle growth medium (SKM-M, AMSbio). For treatment, compounds were directly added to the myoblast cultures 16 hours after initial plating. All cultures were then grown for 96 hours. Cells were stained for Pax7 and MyoD expression using antibodies directed against Pax7 and MyoD and counterstained with Hoechst 33342 to visualize cell nuclei. Pax7+ cells are defined as cells that express Pax7 regardless of MyoD expression. […] Custom module analysis based on Multi-Wavelength Cell Scoring of the MetaXpress software was used for quantification. […]

Compound	proportion of Pax7+ cells, fold change compared to the control condition (FIG. 1A/2A)	proportion of MyoD+ cells, fold change compared to the control condition
NC(=O)c1cccnc1 [Nicotinamide]	increasing the proportion of both amplifying (Pax7+) and differentiating (MyoD+) cells in a dose dependent manner	increasing the proportion of both amplifying (Pax7+) and differentiating (MyoD+) cells in a dose dependent manner
Cc1ncc(CO)c(CO)c1O [Pyridoxine]		increasing the proportion of differentiating (MyoD+) cells in a dose dependent manner
